One data set deals with T1, human polymerase alpha (Homo sapiens, UniProt P09884).
T1 construct: purchased Replizyme Ltd (Heslington, York, UK)
T1 sequence (P09884 1-1462): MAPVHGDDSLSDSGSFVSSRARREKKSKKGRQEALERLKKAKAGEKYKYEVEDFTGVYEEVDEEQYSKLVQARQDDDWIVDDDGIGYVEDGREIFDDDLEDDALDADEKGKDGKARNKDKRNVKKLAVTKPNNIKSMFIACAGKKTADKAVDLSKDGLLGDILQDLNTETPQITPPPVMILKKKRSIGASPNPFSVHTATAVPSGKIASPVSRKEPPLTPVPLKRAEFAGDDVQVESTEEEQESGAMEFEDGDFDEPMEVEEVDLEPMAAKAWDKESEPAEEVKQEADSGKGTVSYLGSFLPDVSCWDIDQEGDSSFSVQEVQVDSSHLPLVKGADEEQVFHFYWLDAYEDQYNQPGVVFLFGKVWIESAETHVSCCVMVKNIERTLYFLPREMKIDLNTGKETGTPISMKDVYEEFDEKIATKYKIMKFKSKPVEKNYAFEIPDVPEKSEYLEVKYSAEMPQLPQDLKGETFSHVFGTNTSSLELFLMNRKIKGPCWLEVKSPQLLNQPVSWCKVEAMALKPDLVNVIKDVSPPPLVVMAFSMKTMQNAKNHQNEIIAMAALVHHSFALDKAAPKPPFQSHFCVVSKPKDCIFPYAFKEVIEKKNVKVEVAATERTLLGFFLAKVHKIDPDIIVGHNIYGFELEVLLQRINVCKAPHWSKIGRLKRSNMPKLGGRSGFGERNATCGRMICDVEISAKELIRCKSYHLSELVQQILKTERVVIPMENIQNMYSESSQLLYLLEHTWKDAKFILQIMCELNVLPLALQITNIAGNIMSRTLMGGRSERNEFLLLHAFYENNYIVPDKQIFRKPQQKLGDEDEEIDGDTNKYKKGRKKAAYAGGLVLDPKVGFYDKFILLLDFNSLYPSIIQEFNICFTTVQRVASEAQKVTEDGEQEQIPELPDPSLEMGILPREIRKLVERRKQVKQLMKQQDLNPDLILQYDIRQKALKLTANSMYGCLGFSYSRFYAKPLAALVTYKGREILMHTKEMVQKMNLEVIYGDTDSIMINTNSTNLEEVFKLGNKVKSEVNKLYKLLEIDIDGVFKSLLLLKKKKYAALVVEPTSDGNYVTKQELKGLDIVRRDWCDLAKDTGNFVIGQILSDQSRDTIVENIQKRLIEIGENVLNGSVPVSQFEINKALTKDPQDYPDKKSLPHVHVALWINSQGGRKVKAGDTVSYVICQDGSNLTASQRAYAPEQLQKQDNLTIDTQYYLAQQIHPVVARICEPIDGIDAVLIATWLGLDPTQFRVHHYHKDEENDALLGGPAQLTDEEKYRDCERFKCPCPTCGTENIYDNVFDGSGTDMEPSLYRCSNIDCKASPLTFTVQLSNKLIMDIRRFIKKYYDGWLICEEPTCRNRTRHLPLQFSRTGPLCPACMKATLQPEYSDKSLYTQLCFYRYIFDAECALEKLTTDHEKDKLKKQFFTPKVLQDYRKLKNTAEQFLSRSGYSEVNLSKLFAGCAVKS
The data set is described as follows: Homotemplate enzymatic assay, polymerase alpha. The settings on record: four concentrations, homotemplate format. The class given is biochemical. As for the experimental part:
To test for selectivity, an enzymatic assay of activity in human polymerase alpha and human polymerase gamma was performed using a homotemplate assay format (Replizyme Ltd., Heslington, York, UK). The IC50 was measured by testing four different concentrations of a selected compound as compared to an untreated control.

The test system of another data set is NCI-H226. The data set is described as follows: NCI In Vitro Cell Line Screening (SRB). Format: cell-based, human. Conditions: NCI-H226, Non-Small Cell Lung Cancer, 48 h; for GI50 / LC50 (concentration killing 50% of cells): Homo sapiens.
The next data set relates to NCI-H322M. Put plainly: NCI In Vitro Cell Line Screening (SRB). Format: cell-based, human. The settings on record: Non-Small Cell Lung Cancer, 48 h; for GI50 / CC50: Homo sapiens; for CC50: read-out: LC50 (the source's name).
The subject of the next data set is M14. Put plainly: NCI In Vitro Cell Line Screening (SRB). Format: cell-based, human. The settings on record: M14, Melanoma, 48 h; for GI50 / CC50: Homo sapiens; for CC50: read-out: LC50 (the source's name).
Another data set deals with SK-OV-3. The data set is described as follows: NCI In Vitro Cell Line Screening (SRB). The class given is cell-based, human. The settings on record: SK-OV-3, Ovarian Cancer, 48 h; for GI50 / CC50: Homo sapiens; for CC50: read-out: LC50 (the source's name).
A further data set deals with TK-10. Put plainly: NCI In Vitro Cell Line Screening (SRB). The settings on record: TK-10, Renal Cancer, 48 h; for GI50 / CC50: Homo sapiens; for CC50: read-out: LC50 (the source's name). Format: cell-based, human.
Another data set relates to PC-3. The data set is described as follows: NCI In Vitro Cell Line Screening (SRB). The class given is cell-based, human. Conditions: PC-3, Prostate Cancer, 48 h; for GI50 / CC50: Homo sapiens; for CC50: read-out: LC50 (the source's name).
In a further data set the test system is T-47D. Put plainly: NCI In Vitro Cell Line Screening (SRB). Format: cell-based, human. Conditions: Breast Cancer, 48 h.
Another data set has as its system OVCAR-3. Put plainly: NCI In Vitro Cell Line Screening (SRB). The settings on record: for GI50 / CC50: Homo sapiens, OVCAR-3, 48 h; for CC50: read-out: LC50; for TGI: OVCAR-3, Ovarian Cancer, 48 h.
Data set [1] is described as follows: Cytotoxicity Huh-7 cells (MTS/PMS). The class given is cell-based. The settings on record: human, 3-day incubation. Here is the method: Cytotoxicity of compounds for use in treating hyperproliferative diseases or disorders was tested in Huh-7 cells using tetrazolium salt MTS combined with the electron acceptor PMS in a 96-well format. Six doses of each compound was tested, starting at about 1.2 μM to 0.4 μM serially diluted in a final 1% DMSO solution in DMEM/F12 media. Terfenadine was used as a positive control. Cells were seeded at 2.5×10^5 cells/mL in each well of the 96-well plates in a final volume of 0.1 mL, and then incubated at 37° C. in the presence of 5% CO2 overnight. Compounds (in media) were added the following day and the treated cells were incubated another 3-days at 37° C. in the presence of 5% CO2. After the 3-day incubation, 20 μL of MTS/PMS (3-(4,5-dimethylthiazol-2-yl)-5-(3-carboxymethoxy-phenyl)-2-(4-sulfophenyl)-2H-tetrazolium) was added to each well. After about a one to four hour incubation of MTS/PMS at 37° C. and 5% CO2—that is, until an OD490 absorbance of ≧0.6 for the wells containing cells with media only, the level of cytotoxicity at each concentration was calculated. […] Dose response results from the cytotoxicity assay (CC50) are provided in Table 4 in comparison with IC50 data (from Table 2)

As a reminder, the IC50 is the concentration that gives 50% inhibition. Broadly, the GI50 is the concentration that inhibits growth by half. High values mean lower sensitivity of the cells, low ones greater sensitivity of the cells. The term TGI denotes the concentration giving total growth inhibition. Low values mean greater sensitivity of the cells, high ones lower sensitivity of the cells.

At human polymerase alpha, `Cc1ccc(NC(=O)[C@@H](CCCCN)NC(=O)Nc2ccc3c(c2)Cc2ccccc2-3)cc1` [Compound 173, (R)-6-AMINO-2-[3-(9H-FLUOREN-2-YL)-UREIDO]-HEXANOIC ACID P-TOLYLAMIDE] had an IC50 of less than 4 µM. Moreover, the GI50 in the data set on NCI-H226 worked out at 1.62 µM; in the data set with NCI-H322M it was 2.54 µM; in the data set on M14, 3.43 µM; in the data set on SK-OV-3 it was 1.61 µM; in the data set with TK-10 it was 3.59 µM; in the data set with PC-3 it was 2.78 µM. In addition, the GI50 came to 1.7 µM in the data set on T-47D (Homo sapiens, T47D) and 1.31 µM with OVCAR-3. The LC50 (concentration killing 50% of cells) in the data set with NCI-H226 worked out at 45.6 µM. Also, the TGI in the data set on NCI-H226 was determined as 9.56 µM; in the data set on NCI-H322M, 12.0 µM; with M14, 11.4 µM; in the data set on SK-OV-3 it was 3.08 µM; in the data set with TK-10, 17.6 µM; with PC-3, 11.0 µM. For the same compound, the concentration for total growth inhibition (TGI) in the data set on T-47D worked out at 3.78 µM; in the data set with OVCAR-3 it was 9.94 µM. Also, the CC50 in the data set on NCI-H322M was 39.8 µM; with M14, greater than 100 µM; with SK-OV-3 it was 5.88 µM; with TK-10, 55.4 µM; with PC-3 it was 44.5 µM; in the data set on T-47D (Homo sapiens, T47D, read-out: LC50 (the source's name)), 8.41 µM. In the data set on OVCAR-3, the CC50 stood at 31.6 µM.

For `COC(=O)c1ccc(COc2ccc(NC(=O)N[C@@H](CCCCN)C(=O)Nc3ccc(C)cc3)cc2)cc1` [Compound 199, (S)-4-{4-[3-(5-AMINO-1-P-TOLYLCARBAMOYL-PENTYL)-UREIDO]-PHENOXYMETHYL}-BENZOIC ACID METHYL ESTER], the IC50 against human polymerase alpha is roughly 4 µM. Further, the CC50 at 3 days in data set [1] worked out at 53 µM.

`CC(C)(C)c1ccc(NC(=O)[C@H](CCCCN)NC(=O)OCC2c3ccccc3-c3ccccc32)cc1` [Compound 105, (S)-[5-AMINO-1-(4-TERT-BUTYL-PHENYLCARBAMOYL)-PENTYL]-CARBAMIC ACID 9H-FLUOREN-9-YLMETHYL ESTER]: the GI50 is 22.2 µM in the data set with NCI-H226; 13.5 µM with NCI-H322M; 1.77 µM in the data set on M14; 1.85 µM in the data set with SK-OV-3; 14.1 µM with TK-10; 1.73 µM in the data set on PC-3. In addition, the concentration for 50% growth inhibition (GI50) in the data set with T-47D (Homo sapiens, T47D) was 1.45 µM; in the data set with OVCAR-3, 16.1 µM. Also, the LC50 (concentration killing 50% of cells) in the data set on NCI-H226 came out at 89.2 µM. In addition, the total growth inhibition concentration (TGI) with NCI-H226 was determined as 44.4 µM; in the data set with NCI-H322M, 30.7 µM; in the data set with M14, 3.40 µM; with SK-OV-3, 3.33 µM; in the data set on TK-10 it was 34.1 µM; with PC-3, 3.33 µM. For the same compound, the figures for the TGI with T-47D and in the data set with OVCAR-3 were 3.08 µM and 30.1 µM, respectively. In addition, the CC50 in the data set with NCI-H322M is 69.9 µM; in the data set on M14, 6.55 µM; with SK-OV-3, 5.99 µM; in the data set on TK-10 it was 82.9 µM; in the data set on PC-3 it was 6.41 µM; with OVCAR-3, 56.3 µM.

Turning to `Cc1cc2cc(NC(=O)[C@H](CCCNC(=O)CN)NC(=O)Nc3ccc4c(c3)Cc3ccccc3-4)ccc2[nH]1` [Compound 297, (S)-5-(2-AMINO-ACETYLAMINO)-2-[3-(9H-FLUOREN-2-YL)-UREIDO]-PENTANOIC ACID (2-METHYL-1H-INDOL-5-YL)-AMIDE], the IC50 at human polymerase alpha was less than 4 µM. In [1], this compound returned a CC50 at 3 days of 9.9 µM.

`Cc1ccc(NC(=O)[C@H](CCCCN)NC(=O)Nc2ccc(OCc3ccccc3)cc2)cc1` [Compound 2, (S)-6-AMINO-2-[3-(4-BENZYLOXY-PHENYL)-UREIDO]-HEXANOIC ACID P-TOLYLAMIDE] gave a half-inhibitory concentration (IC50) against human polymerase alpha of less than 4 µM. For the same compound, the CC50 at 3 days in data set [1] came to 22.2 µM.

For the origin of these results see patent publication US20080171783A1, “COMPOSITIONS AND METHODS FOR TREATING HYPERPROLIFERATIVE DISEASE” (Migenix Inc., priority 2006, published 2008).
